Patent US7091240B2, “Tubulin binding ligands and corresponding prodrug constructs” (Oxigene, Inc., priority 2000, dated 2006)
pIC50: −log10 of the molar value. Like-named read-outs stand apart in the source and are kept apart here.

Assays:
[1] = test system: murine hemangioendothelioma MHEC-5T cell line; experiment: In vitro antiproliferative activity, MTT assay; type: cell-based
Method: The following compounds were tested for in vitro antiproliferative activity against the murine hemangioendothelioma MHEC-5T cell line using a standard MTT assay (see Mosman, J. Immunol. Methods, 1983). In actively proliferating cells, an increase in MTT conversion is spectrophotometrically quantified by the reduction of MTT (3-[4,5-dimethylthiazol-2-yl]-2,5-diphenyl tetrazolium bromide) to the insoluble formazan dye by enzymes associated with metabolic activity. A compound with growth inhibitory activity will cause a reduction in dye formation relative to cells exposed to a vehicle control.

[2] = test system: MHEC-5T hemangioendothelioma tumor model; experiment: Inhibition of tumor blood flow, Fluorescent Bead Assay; type: in vivo; settings: single i.p. injection, 24 hours post-treatment, SCID mice
Method: The antivascular effects of the diphosphate BbF, Oxi-com 223, was assessed in tumor-bearing mice using a Fluorescent Bead Assay. A MHEC-5T hemangioendothelioma tumor model was established by subcutaneous injection of 0.5×10^6 cultured transformed cell murine myocardial vascular endothelial cell line (“MHEC5-T”) cells into the right flank of Fox Chase CB-17 Severe Combined Immunodeficient (“SCID”) mice. […] At 24 hours post-treatment, mice were injected intravenously with 0.25 ml of diluted FluoSphere beads (1:6 in physiological saline) in the tail vein, sacrificed after 3 minutes, and tumor was excised for cryosectioning. Tumor cryosections at a thickness of 8 μm were directly examined using quantitative fluorescent microscopy. Blood vessels were indicated by blue fluorescence from injected beads. For quanitification, image analysis of 3 sections from three tumors treated in each group were examined and vascular shutdown was expressed as vessel area (mm^2) per tumor tissue area (mm^2) as a percentage of the control (“% VAPM”). Compounds of the present invention were tested for antivascular effects at two dosages (100 mg/kg and 10 mg/kg) using the same Fluorescent Bead Assay as in the previous experiment.

purified tubulin = experiment: Inhibition of tubulin polymerization assay; type: biochemical, bovine; settings: for pIC50: read-out: IC50 In Vitro Inhibition of Tubulin Polymerization, 1.5 mg/ml tubulin, preincubated 15 minutes at 37° C., GTP-induced
Method: IC50 values for tubulin polymerization were determined according to a previously described procedure (Bai et al, Cancer Research, 1996). Purified tubulin is obtained from bovine brain cells as described in Hamel and Lin (Hamel and Lin, Biochemistry, 1984). Various amounts of inhibitor were preincubated for 15 minutes at 37° C. with purified tubulin. After the incubation period, the reaction was cooled and GTP was added to induce tubulin polymerization. Polymerization was then monitored in a Gilford spectrophotometer at 350 nm. The final reaction mixtures (0.25 ml) contained 1.5 mg/ml tubulin, 0.6 mg/ml microtubule-associated proteins (MAPs), 0.5 mM GTP, 0.5 mM MgCl2, 4% DMSO and 0.1M 4-morpholineethanesulfonate buffer (MES, pH 6.4).

KM20L2 = experiment: In vitro cytotoxicity against human cancer cell lines (SRB); type: cell-based; settings: colon; 48 hours incubation
Method: (§1) Briefly, the cell suspensions, diluted according to the particular cell type and the expected target cell density (5,000–40,000 cells per well based on cell growth characteristics), were added by pipet (100 μl) to 96-well microtiter plates. Inoculates were allowed a preincubation time of 24–28 hours at 37° C. for stabilization. Incubation with the inhibitor compounds lasted for 48 hours in 5% CO2 atmosphere and 100% humidity. Determination of cell growth was performed by in situ fixation of cells, followed by staining with a protein-binding dye sulforhodamine B (SRB), which binds to the basic amino acids of cellular macromolecules. The solubilized stain was measured spectrophotometrically.
(§2) Compounds were evaluated in terms of growth inhibitory activity against several human cancer cell lines including: central nervous system (“CNS”, SF-295 or SF-268), pancreas (BXPC-3), non-small cell lung cancer (“lung-NSC”, NCI-H460), breast (MCF-7), colon (KM20L2), ovarian (OVCAR-3), pharyngeal (FADU), or prostate (DU-145).

SF-268 = experiment: as above; type: cell-based; settings: CNS; 48 hours incubation; values marked *
Method: as §1, §2

BXPC-3 = experiment: as above; type: cell-based; settings: pancreas; 48 hours incubation
Method: as §1, §2

NCI-H460 = experiment: as above; type: cell-based; settings: lung-NSC; 48 hours incubation
Method: as §1, §2

MCF-7 = experiment: as above; type: cell-based; settings: breast; 48 hours incubation
Method: as §1, §2

DU-145 = experiment: as above; type: cell-based; settings: prostate; 48 hours incubation
Method: as §1, §2

SF-295 = experiment: as above; type: cell-based; settings: CNS; 48 hours incubation; unstarred values
Method: as §1, §2

[3] = test system: human breast cancer MDA-MB-231 model; experiment: Tumor growth control in vivo; settings: 400 mg/kg i.p. in saline, SCID mice, Days 1, 2 and 6 post-treatment
Method: The antitumor activity of BbT prodrug 8 was assessed in female tumor-bearing mice by measuring its effects on tumor volume in comparison with CA4P. A human breast cancer MDA-MB-231 model was established by subcutaneous injection of cultured M DA-MB-231 cells (1×10^6) in Fox Chase CB-17 SCID mice.
Mice were administered CA4P or BbT prodrug in saline carrier at 400 mg/kg by intraperitoneal (i.p.) injection after 1 week of MDA-MB inoculation. Saline carrier only was used as the control treatment. On Days 1, 2 and 6 post-treatment, tumors were measured by width and length by a caliber. Tumor volume was calculated according to the following formula: Length×Width^2×0.4. The relative anti-tumor effects are illustrated in FIG. 9.

In vitro cytotoxicity = type: cell-based
OVCAR-3 = experiment: In vitro cytotoxicity against human cancer cell lines (SRB); type: cell-based; settings: ovarian; 48 hours incubation
Method: as §1, with “The activity of several compounds were tested against a variety of cell lines derived from human tumors, using an assay system similar to a procedure previously described (Monks et al, J. Natl. Cancer Inst., 1991). Briefly,” for “Briefly,”
as §2

FADU = experiment: as above; type: cell-based; settings: pharyngeal; 48 hours incubation
Method: as §1, with “The activity of several compounds were tested against a variety of cell lines derived from human tumors, using an assay system similar to a procedure previously described (Monks et al, J. Natl. Cancer Inst., 1991). Briefly,” for “Briefly,”
as §2

[4] = 5 days, read-out: IC50 at 5 days
[5] = read-out: IC50 at 1 hour, 1 hour

| Compound | pIC50 [1, 4] | pIC50 [1, 5] | pIC50 (purified tubulin) | GI50 for Cell Line BXPC-3 (BXPC-3) | GI50 for Cell Line NCI-H460 (NCI-H460) | GI50 for Cell Line DU-145 (DU-145) | other results |
| --- | --- | --- | --- | --- | --- | --- | --- |
| COc1ccc2c(C(=O)c3cc(OC)c(OC)c(OC)c3)c(-c3ccc(OC)c(OP(=O)([O-])[O-])c3)oc2c1.[Na+].[Na+] [Oxi-com 223, 33, 3-(3′,4′,5′-trimethoxybenzoyl)-2-(3′-disodiumphosphate-4′-methoxyphenyl)-6-methoxybenzo[b]furan] | < 5.85 | < 4.30 |  |  |  |  | % VAPM at 10 mg/kg dose ([2]; 10 mg/kg): 10%; % VAPM at 100 mg/kg dose ([2]; 100 mg/kg): 51% |
| COc1ccc2c(-c3ccc(OC)c(O)c3O)coc2c1 [Compound 28, 3-(2′,3′-hydroxy-4′-methoxyphenyl)-6-methoxybenzo[b]furan] |  |  | 5.40 to 6.00 |  |  |  |  |
| COc1ccc2c(C(=O)c3cc(OC)c(OC)c(OC)c3)c(-c3ccc(OC)c(OP(=O)([O-])[O-])c3)oc2c1.[Na+].[Na+] [Oxi-com 195, 19, 2-(3″-disodiumphosphate-4″-methoxyphenyl)-6-methoxy-3-(3′,4′,5′-trimethoxybenzoyl)benzo[b]furan] | 7.00 | < 4.60 | 5.00 to 5.40 | 2.3 µg/mL | 0.05 µg/mL | 0.05 µg/mL | GI50 for Cell Line KM20L2 (KM20L2): 3.8 µg/mL; GI50 for Cell Line SF-268 (SF-268): *0.062 μg/ml; GI50 for Cell Line MCF-7 (MCF-7): 0.042 µg/mL |
| COc1ccc2c(-c3ccc(OC)c(O)c3O)c(C(=O)c3cc(OC)c(OC)c(OC)c3)oc2c1 [Compound 31, 3-(2″,3″-dihydroxy-4″-methoxyphenyl)-6-methoxy-2-(3′,4′,5′-trimethoxybenzoyl)benzo[b]furan] |  |  | 5.40 to 6.00 |  |  |  |  |
| COc1ccc2c(C(=O)c3cc(OC)c(OC)c(OC)c3)c(-c3ccc(OC)c(OP(=O)([O-])[O-])c3)sc2c1.[Na+].[Na+] [Oxi-com 140, 8, 3-(3′,4′,5′-trimethoxybenzoyl)-2-(3′-sodiumphosphate-4′-methoxyphenyl)-6-methoxybenzo[b]thiophene] | 6.89 | < 4.95 |  | 0.35 µg/mL | 0.035 µg/mL | 0.045 µg/mL | GI50 for Cell Line KM20L2 (KM20L2): 0.22 µg/mL; GI50 for Cell Line MCF-7 (MCF-7): 0.028 µg/mL; GI50 for Cell Line SF-295 (SF-295): 0.11 µg/mL; effect on tumor growth (tumor volume) relative to control treatment [3]: significantly inhibited tumor growth |
| COc1ccc(/C=C\c2cc(OC)c(OC)c(OC)c2)cc1OP(=O)([O-])[O-].[Na+].[Na+] [CA4P, Combretastatin A-4 Disodium Phosphate Prodrug, reference compound] | 8.70 | 6.10 |  |  |  |  | effect on tumor growth (tumor volume) relative to control treatment [3]: significantly inhibited tumor growth |
| C#C/C=C\C#CC(=O)c1cc(OC)c(OC)c(OC)c1 [Enediyne, 47, 1-(3,4,5-trimethoxybenzoyl)-(Z)-3-ene-1,5-hexadiyne] |  |  |  | 1.4 µg/mL | 1.7 µg/mL | 0.54 µg/mL | inhibition of tubulin polymerization (in words) (purified tubulin): excellent inhibition of tubulin polymerization; cytotoxicity (in words) (In vitro cytotoxicity): strong cytotoxicity; GI50 for Cell Line SF-295 (SF-295): 1.7 µg/mL; GI50 for Cell Line OVCAR-3 (OVCAR-3): 0.53 µg/mL; GI50 for Cell Line FADU (FADU): 0.95 µg/mL |
